These results are taken from patent publication US12630643B2, “CD40 binding protein, bispecific conjugate thereof and method of treating cancer” (priority 2020, dated 2026).

The target of one experiment is 14GIIICII scFv. The class given is binding, mouse.
Another experiment deals with IBIIICI scFv. The class given is binding, mouse.
The next experiment relates to Cynomolgus CD40-Fc. Put plainly: SPR kinetic measurements (single cycle kinetics) on captured IgG2, cCD40-Fc. Conditions: for ka / kd: Cynomolgus CD40-Fc (dimer, avidity effects may contribute). A general note: Surface plasmon resonance follows binding to a sensor surface in real time, without labels.
For another experiment, the target named is T1, Canine CD40-Fc (Canis lupus familiaris, UniProt Q7YRL5).
T1 construct: purchased Sino Biological 70105-D02H
T1 sequence (Q7YRL5 21-193 limits assumed): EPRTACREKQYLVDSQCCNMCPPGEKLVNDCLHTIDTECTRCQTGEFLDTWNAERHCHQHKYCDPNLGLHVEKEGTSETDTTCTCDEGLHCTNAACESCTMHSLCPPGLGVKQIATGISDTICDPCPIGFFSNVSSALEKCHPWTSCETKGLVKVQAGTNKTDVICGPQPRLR
Put plainly: SPR single cycle kinetics of Example 5, canine CD40-Fc. It counts as binding.

Experiment [1] concerns the target T2, Human CD40-Fc (Homo sapiens, UniProt P25942). Briefly: SPR kinetic measurements (single cycle kinetics) on captured IgG2, hCD40-Fc. The settings on record: for ka / kd: Human CD40-Fc (dimer, avidity effects may contribute).
Target sequence in this assay (P25942 21-193): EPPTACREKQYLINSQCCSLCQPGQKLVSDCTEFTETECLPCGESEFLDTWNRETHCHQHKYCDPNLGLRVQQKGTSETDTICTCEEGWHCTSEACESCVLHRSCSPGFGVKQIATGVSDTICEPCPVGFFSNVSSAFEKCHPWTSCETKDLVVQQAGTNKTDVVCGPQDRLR
For another experiment, the target named is CD40 on CD19+ cells (Homo sapiens, UniProt P25942). Briefly: Competitive binding with anti-CD40-FITC antibody 5C3, flow cytometry. The settings on record: 25 nM-50 nM antibody, 30 min on ice. Background: Flow cytometry measures light scatter and fluorescence of single cells or particles in a stream.
Another experiment has as its target T3, canine (dog) CD40 (Canis lupus familiaris, UniProt Q7YRL5).
T3 sequence (Q7YRL5 21-274): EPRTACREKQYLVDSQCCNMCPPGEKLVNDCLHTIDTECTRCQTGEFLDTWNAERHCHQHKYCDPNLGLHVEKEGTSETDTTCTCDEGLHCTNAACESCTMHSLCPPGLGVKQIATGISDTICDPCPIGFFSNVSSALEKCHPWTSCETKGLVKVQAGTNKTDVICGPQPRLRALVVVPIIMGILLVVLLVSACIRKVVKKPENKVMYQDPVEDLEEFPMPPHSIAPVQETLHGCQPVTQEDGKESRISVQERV
The settings on record: stated in US2006-0093600; cited from earlier work.

A further experiment deals with Human CD40-avi (Homo sapiens, UniProt P25942). Put plainly: SPR kinetic measurements (single cycle kinetics) on captured IgG2, hCD40-avi. The settings on record: 1:1 Langmuir binding model.
The target of experiment [2] is T2, Human CD40-Fc. Briefly: SPR single cycle kinetics of Example 5, human CD40-Fc. Also on record: purchased Sino Biological 10774-H38H. Conditions: 1:1 Binding.
Target sequence in this assay (P25942 21-193 limits assumed): as the sequence (P25942 21-193) above
The target in experiment [3] is CD40 ligand interaction with CD40 (Homo sapiens, UniProt P25942). Conditions: Yu et al. 2018; WO 2015/091853; cited from earlier work.
Experiment [4] concerns human monocyte-derived dendritic cells. Briefly: Internalisation of antibody into dendritic cells. Conditions: 125 nM antibody.
The subject of experiment [5] is human monocyte-derived DC (MoDC). Briefly: MoDC activation, flow cytometry of surface activation markers (t-SNE). Conditions: 125 nM antibody, 48 hours of stimulation.

Chain of Human CD40-avi (P25942 21-193): as the sequence (P25942 21-193) above
Chain of CD40 ligand interaction with CD40 (P25942 21-277): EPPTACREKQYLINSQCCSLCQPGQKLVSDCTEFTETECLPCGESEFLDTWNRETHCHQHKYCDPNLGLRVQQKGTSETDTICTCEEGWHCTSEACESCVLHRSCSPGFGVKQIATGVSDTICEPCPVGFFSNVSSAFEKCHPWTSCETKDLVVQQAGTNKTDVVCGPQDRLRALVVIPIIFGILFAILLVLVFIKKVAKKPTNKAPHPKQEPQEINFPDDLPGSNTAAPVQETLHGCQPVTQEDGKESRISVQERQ
Chain of CD40 on CD19+ cells (P25942 21-277): as above

For FIGITELKKLES [UU74], on 14GIIICII scFv, the Kd was determined as 1700 pM, the “ka” value was found to be 570000 M⁻¹ s⁻¹ and the “kd” value is 0.00095 s⁻¹. Besides, at IBIIICI scFv, the Kd was 120 pM, the “ka” value was found to be 280000 M⁻¹ s⁻¹ and the “kd” value was determined as 3.3e-05 s⁻¹.
Turning to FIGITELKKLESK [UU73], on 14GIIICII scFv, the Kd came out at 870 pM, the “ka” value was 510000 M⁻¹ s⁻¹ and the “kd” value was found to be 0.00044 s⁻¹. At IBIIICI scFv, the Kd came out at 340 pM, the “ka” value is 200000 M⁻¹ s⁻¹ and the “kd” value turned out to be 6.7e-05 s⁻¹.
Consider FIGITELKKLESKI [UU72], for which, at 14GIIICII scFv, the Kd is 600 pM, the “ka” value came to 570000 M⁻¹ s⁻¹ and the “kd” value worked out at 0.00034 s⁻¹. In the experiment with IBIIICI scFv, the “ka” value was 250000 M⁻¹ s⁻¹ and the “kd (1/s)” value is reported as “* (key: *: too low for, or very close to the detection limit of, instrument specification (<10^−5))”.
Regarding FIGITELKKLESKIN [UU71], on 14GIIICII scFv, the Kd turned out to be 600 pM, the “ka” value came out at 540000 M⁻¹ s⁻¹ and the “kd” value turned out to be 0.00032 s⁻¹. Moreover, in the experiment on IBIIICI scFv, the “ka” value turned out to be 230000 M⁻¹ s⁻¹ and the “kd (1/s)” value is given as “* (key: *: too low for, or very close to the detection limit of, instrument specification (<10^−5))”.
Regarding FIGITELKKLESKINK [UU70], on 14GIIICII scFv, the Kd was 290 pM, the “ka” value stood at 650000 M⁻¹ s⁻¹ and the “kd” value turned out to be 0.00019 s⁻¹. Also, on IBIIICI scFv, the Kd was found to be 160 pM, the “ka” value amounted to 230000 M⁻¹ s⁻¹ and the “kd” value was found to be 3.7e-05 s⁻¹.
Regarding “FIGITELKKLESKINKVF (SEQ ID NO: 25), C-term K-biotin; full length MTTE [UU24]”, on 14GIIICII scFv, the Kd stood at 300 pM, the “ka” value came to 660000 M⁻¹ s⁻¹ and the “kd” value came to 0.0002 s⁻¹. On IBIIICI scFv, the Kd was determined as 120 pM, the “ka” value was 190000 M⁻¹ s⁻¹ and the “kd” value came out at 2.3e-05 s⁻¹.
Regarding “X-SM083-ab-5: agonistic anti-CD40 antibody CP-870,893 (US 2017/0342159) as hIgG2”, the entries for the “ka” value in the experiment on Cynomolgus CD40-Fc, with Human CD40-Fc [1] and in the experiment with Human CD40-avi were 91000 M⁻¹ s⁻¹, 66000 M⁻¹ s⁻¹ and 62000 M⁻¹ s⁻¹, respectively. For the same molecule, the “kd” value at Cynomolgus CD40-Fc is 2.5e-05 s⁻¹; with Canine CD40-Fc (Canine CD40-Fc, 1:1 Binding), 0.00041 s⁻¹; with Human CD40-Fc [1], 3.2e-05 s⁻¹; with Human CD40-avi it was 0.0011 s⁻¹; in the experiment with Human CD40-Fc [2] it was 3.6e-05 s⁻¹. Also, the “Ka” value with Canine CD40-Fc (Canine CD40-Fc, 1:1 Binding) came to 170000 M⁻¹ s⁻¹; with Human CD40-Fc [2] (optimised follow-up experiment), 190000 M⁻¹ s⁻¹. Moreover, the “affinity for canine CD40 lower than for the human orthologue” value in the experiment with Canine CD40-Fc (canine vs human CD40-Fc) is “approximately 10 times”. Besides, the “binding to canine CD40” value in the experiment with Canine CD40-Fc (in words) is recorded as “exhibited binding to canine CD40”. Besides, the “5C3-FITC staining after pre-incubation with antibody” value with CD40 on CD19+ cells is recorded as “loss of the FITC signal”. Also, the “binding to canine (dog) CD40” value with canine (dog) CD40 is on record as “does not bind to canine (dog) CD40”. Further, the Kd was found to be 18000 pM with Human CD40-avi and 200 pM with Human CD40-Fc [2] (read-out: ^appKD). In addition, the “competition with / blocking of CD40 ligand” value in experiment [3] is on record as “without blocking CD40 ligand interaction”.

B1: X-SM083-ab-2: agonistic anti-CD40 antibody 1150/1151 (WO 2015/091853) as hIgG2 (antibody)
heavy: EVQLLESGGGLVQPGGSLRLSCAASGFTFSSYAMSWVRQAPGKGLEWVSGIGGSSSYTSYADSVKGRFTISRDNSKNTLYLQMNSLRAEDTAVYYCARYYSYHMDYWGQGTLVTVSSASTKGPSVFPLAPCSRSTSESTAALGCLVKDYFPEPVTVSWNSGALTSGVHTFPAVLQSSGLYSLSSVVTVPSSNFGTQTYTCNVDHKPSNTKVDKTVERKCCVECPPCPAPPVAGPSVFLFPPKPKDTLMISRTPEVTCVVVDVSHEDPEVQFNWYVDGVEVHNAKTKPREEQFNSTFRVVSVLTVVHQDWLNGKEYKCKVSNKGLPAPIEKTISKTKGQPREPQVYTLPPSREEMTKNQVSLTCLVKGFYPSDISVEWESNGQPENNYKTTPPMLDSDGSFFLYSKLTVDKSRWQQGNVFSCSVMHEALHNHYTQKSLSLSPGK
light: DIQMTQSPSSLSASVGDHVTITCRASQSISSYLNWYQQKPGKAPKLLIYAASSLQSGVPSRFSGSGSGTDFTLTISSLQPEDFATYYCQQYGSAPPTFGQGTKLEIK
modifications: left off: a dimerising Fc or GST
notes: agonistic anti-CD40 antibody 1150/1151 (WO 2015/091853) as hIgG2
Consider B1, for which the entries for the “ka” value in the experiment with Cynomolgus CD40-Fc, with Human CD40-Fc [1] and with Human CD40-avi were 490000 M⁻¹ s⁻¹, 320000 M⁻¹ s⁻¹ and 750000 M⁻¹ s⁻¹, respectively. Besides, the “kd” value on Cynomolgus CD40-Fc is 0.0018 s⁻¹; in the experiment with Human CD40-Fc [1] it was 0.0014 s⁻¹; in the experiment with Human CD40-avi it was 0.14 s⁻¹. Further, the Kd worked out at 3800 pM on Cynomolgus CD40-Fc (read-out: ^appKD, Cynomolgus CD40-Fc, apparent affinity, 1:1 Langmuir model); 4600 pM with Human CD40-Fc [1] (read-out: ^appKD, Human CD40-Fc, apparent affinity, 1:1 Langmuir model); 180000 pM with Human CD40-avi. In addition, the internalisation in [4] (after 60 min at 37° C.) amounted to 50%. Besides, in experiment [4] (after 4 h incubation), the antibodies remained extracellular entry is recorded as “Approximately 30%”. Further, in experiment [5], the “agonistic profile, t-SNE cluster of surface expression of CD14, CD1a, CD40, HLA-DR, CD86 and CD83” value is given as “potent agonistic profile”. Further, the “competition with / blocking of CD40 ligand” value in [3] is “No competition between this antibody and CD40 ligand was observed”.
